According to PubChem BioAssay (NCI):
Where “and” joins values, the source holds several entries; their conditions need not be identical. Equal values may be shown once.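 Assay format: 96-well plates, 48-hour exposure. Here, GI50 denotes the concentration required for 50% inhibition of growth. TGI marks complete inhibition of growth.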

How the values were obtained:
Test in all cases: inhibition of tumour cell growth, NCI panel, 48 h
RXF 393 renal = tested on: RXF 393 renal
HS 578T breast = tested on: HS 578T breast
EKVX NSCLC = tested on: EKVX NSCLC
SF-539 CNS = tested on: SF-539 CNS
UACC-62 melanoma = tested on: UACC-62 melanoma
BT-549 breast = tested on: BT-549 breast
SF-268 CNS = tested on: SF-268 CNS
SR leukemia = tested on: SR leukemia
MALME-3M melanoma = tested on: MALME-3M melanoma
HOP-92 NSCLC = tested on: HOP-92 NSCLC

`c1ccc2c(c1)[nH]c1c2cc[n+]2cc3c(cc12)CCCC3` gave a GI50 (RXF 393 renal) of 2.98 µM, a TGI (RXF 393 renal) of 12.5 µM and a GI50 (HS 578T breast) of 2.63 µM. For the same compound, the TGI (HS 578T breast) was 12.2 µM and > 100 µM, the TGI (EKVX NSCLC) was 32.4 µM and the GI50 (SF-539 CNS) was 3 µM. The TGI (SF-539 CNS) was 11.7 µM and 6.7 µM, the GI50 (UACC-62 melanoma) was 2.02 µM and the TGI (UACC-62 melanoma) was 4.97 µM. For the same compound, the GI50 (BT-549 breast) was 8.96 µM, the TGI (BT-549 breast) was 25.5 µM and 8.29 µM and the TGI (SF-268 CNS) was 12.8 µM and 18.3 µM. For the same compound, the GI50 (SR leukemia) was 2.51 µM, the TGI (SR leukemia) was 7.52 µM and 4.19 µM and the GI50 (MALME-3M melanoma) was 1.65 µM. It also gave a TGI (MALME-3M melanoma) of 3.54 µM, a GI50 (HOP-92 NSCLC) of 4.57 µM and a TGI (HOP-92 NSCLC) of 24.8 µM.

`COc1ccc(-c2ccc3c(N4CCOC[C@@H]4C)nc(N4CCOC[C@@H]4C)nc3n2)cc1CO` was tested, and the GI50 (RXF 393 renal) was 0.00244 µM and < 0.0105 µM, the TGI (RXF 393 renal) was 0.00676 µM and 0.0643 µM and the GI50 (HS 578T breast) was 0.0018 µM and 0.0131 µM. For the same compound, the TGI (HS 578T breast) was 0.0145 µM and 0.0679 µM, the GI50 (EKVX NSCLC) was 0.00504 µM and 0.0229 µM and the TGI (EKVX NSCLC) was 0.113 µM and 0.564 µM. The GI50 (SF-539 CNS) was 0.00431 µM and 0.026 µM, the TGI (SF-539 CNS) was 0.0831 µM and 0.268 µM and the GI50 (UACC-62 melanoma) was 0.00337 µM and 0.019 µM. For the same compound, the GI50 (BT-549 breast) was 0.00348 µM and 0.0162 µM, the GI50 (SF-268 CNS) was 0.00537 µM and 0.0359 µM and the TGI (SF-268 CNS) was > 3.31 µM and 51.1 µM. The GI50 (SR leukemia) was 0.00529 µM and 0.027 µM, the TGI (SR leukemia) was greater than 100 µM and the GI50 (MALME-3M melanoma) was 0.00289 µM and < 0.01 µM. The TGI (MALME-3M melanoma) was 0.0203 µM and 0.0392 µM and the GI50 (HOP-92 NSCLC) was 0.00134 µM and 0.0105 µM.

`COc1ccc(-c2cnnn2-c2nonc2-n2cccc2)cc1` gave a GI50 (RXF 393 renal) of 0.138 µM, a TGI (RXF 393 renal) of 0.609 µM and a GI50 (HS 578T breast) of 0.239 µM. It also gave a TGI (HS 578T breast) of 2.13 µM, a GI50 (EKVX NSCLC) of 0.547 µM and a TGI (EKVX NSCLC) greater than 94.7 µM. It also gave a GI50 (SF-539 CNS) of 0.321 µM, a TGI (SF-539 CNS) of 4 µM and a GI50 (UACC-62 melanoma) of 0.529 µM. For the same compound, the TGI (UACC-62 melanoma) was 28.2 µM, the GI50 (BT-549 breast) was 0.698 µM and the TGI (BT-549 breast) was 34.6 µM. For the same compound, the GI50 (SF-268 CNS) was 0.52 µM, the TGI (SF-268 CNS) was 27.6 µM and the GI50 (SR leukemia) was 0.0451 µM. For the same compound, the TGI (SR leukemia) was greater than 60.3 µM, the GI50 (MALME-3M melanoma) was 0.382 µM and the TGI (MALME-3M melanoma) was 27.6 µM. It also gave a GI50 (HOP-92 NSCLC) of 0.437 µM and a TGI (HOP-92 NSCLC) of 43.9 µM.

In the case of `O=C(/C(=C\c1c(-c2ccccc2)[nH]c2ccccc12)S(=O)(=O)c1ccccc1)c1ccccc1`, the GI50 (RXF 393 renal) is reported as 97.1 µM, the TGI (RXF 393 renal) is reported as greater than 100 µM and the GI50 (HS 578T breast) is reported as 39.5 µM. For the same compound, the TGI (HS 578T breast) was greater than 100 µM, the GI50 (EKVX NSCLC) was 4.56 µM and the TGI (EKVX NSCLC) was greater than 100 µM. The GI50 (SF-539 CNS) was greater than 100 µM, the TGI (SF-539 CNS) was greater than 100 µM and the GI50 (UACC-62 melanoma) was 8.95 µM. For the same compound, the TGI (UACC-62 melanoma) was greater than 100 µM, the GI50 (BT-549 breast) was greater than 100 µM and the TGI (BT-549 breast) was greater than 100 µM. For the same compound, the GI50 (SF-268 CNS) was greater than 100 µM, the TGI (SF-268 CNS) was greater than 100 µM and the GI50 (SR leukemia) was 9.91 µM. The TGI (SR leukemia) was greater than 100 µM, the GI50 (MALME-3M melanoma) was greater than 100 µM and the TGI (MALME-3M melanoma) was greater than 100 µM. It also gave a GI50 (HOP-92 NSCLC) of 4.95 µM and a TGI (HOP-92 NSCLC) greater than 100 µM.

Compound `Nc1cc2c(cc1Br)[nH]c(=O)c1ccccc12` has a GI50 (RXF 393 renal) of 4.3 µM, a TGI (RXF 393 renal) of 21.7 µM and a GI50 (HS 578T breast) of 3.5 µM. For the same compound, the TGI (HS 578T breast) was 28.9 µM, the GI50 (EKVX NSCLC) was 4.18 µM and the TGI (EKVX NSCLC) was 35.1 µM. For the same compound, the GI50 (SF-539 CNS) was 15.1 µM, the TGI (SF-539 CNS) was 49.3 µM and the GI50 (UACC-62 melanoma) was 6.02 µM. For the same compound, the TGI (UACC-62 melanoma) was 20.1 µM, the GI50 (BT-549 breast) was 12.3 µM and the TGI (BT-549 breast) was 31.4 µM. It also gave a GI50 (SF-268 CNS) of 5.9 µM, a TGI (SF-268 CNS) of 44.9 µM and a GI50 (SR leukemia) of 5.07 µM. It also gave a TGI (SR leukemia) of 47.2 µM, a GI50 (MALME-3M melanoma) of 2.17 µM and a TGI (MALME-3M melanoma) of 4.78 µM. For the same compound, the GI50 (HOP-92 NSCLC) was 3.81 µM and the TGI (HOP-92 NSCLC) was 41.8 µM.

With `CC(C)[C@H](O)C(=O)N[C@@H](C)C(=O)N[C@@H]1C(=O)N(C)CCc2ccccc21` the GI50 (RXF 393 renal) was greater than 100 µM, the TGI (RXF 393 renal) was greater than 100 µM and the GI50 (HS 578T breast) was greater than 100 µM. It also gave a TGI (HS 578T breast) greater than 100 µM, a GI50 (EKVX NSCLC) greater than 100 µM and a TGI (EKVX NSCLC) greater than 100 µM. For the same compound, the GI50 (SF-539 CNS) was greater than 100 µM, the TGI (SF-539 CNS) was greater than 100 µM and the GI50 (UACC-62 melanoma) was greater than 100 µM. It also gave a TGI (UACC-62 melanoma) greater than 100 µM, a GI50 (BT-549 breast) greater than 100 µM and a TGI (BT-549 breast) greater than 100 µM. For the same compound, the GI50 (SF-268 CNS) was greater than 100 µM, the TGI (SF-268 CNS) was greater than 100 µM and the GI50 (SR leukemia) was greater than 100 µM. The TGI (SR leukemia) was greater than 100 µM, the GI50 (MALME-3M melanoma) was greater than 100 µM and the TGI (MALME-3M melanoma) was greater than 100 µM. The GI50 (HOP-92 NSCLC) was greater than 100 µM and the TGI (HOP-92 NSCLC) was greater than 100 µM.

For `OC(c1cc(-c2ccc(C(F)(F)F)cc2)nc(C(F)(F)F)c1)C1CCCCN1` (configuration not stated), the TGI (RXF 393 renal) was 3.15 µM, the GI50 (HS 578T breast) was 1.96 µM and 3.92 µM and the TGI (HS 578T breast) was 4.05 µM and 12.2 µM. The GI50 (EKVX NSCLC) was 1.96 µM and 4.22 µM, the TGI (EKVX NSCLC) was 4.3 µM and 11.6 µM and the GI50 (SF-539 CNS) was 1.72 µM and 2.39 µM. For the same compound, the TGI (SF-539 CNS) was 3.12 µM and 4.75 µM, the TGI (UACC-62 melanoma) was 3.02 µM and 3.51 µM and the GI50 (BT-549 breast) was 1.7 µM. For the same compound, the TGI (BT-549 breast) was 3.08 µM, the GI50 (SF-268 CNS) was 1.85 µM and 3.76 µM and the TGI (SF-268 CNS) was 3.46 µM and 13.1 µM. For the same compound, the GI50 (SR leukemia) was 0.362 µM, the TGI (SR leukemia) was 2.17 µM and 4.69 µM and the TGI (MALME-3M melanoma) was 3.28 µM and 3.38 µM. The GI50 (HOP-92 NSCLC) was 1.06 µM and 2.38 µM and the TGI (HOP-92 NSCLC) was 2.47 µM and 9.39 µM.

Work on `O=C(Nc1cc(Cl)ccc1O)c1ccc(Nc2ccnc(C(F)(F)F)c2)cc1` yielded a GI50 (RXF 393 renal) of 5.71 µM, a TGI (RXF 393 renal) greater than 100 µM and a GI50 (HS 578T breast) of 3.75 µM. It also gave a TGI (HS 578T breast) greater than 100 µM, a GI50 (EKVX NSCLC) of 2.84 µM and a TGI (EKVX NSCLC) of 9.63 µM. It also gave a GI50 (SF-539 CNS) of 3.29 µM, a TGI (SF-539 CNS) greater than 100 µM and a GI50 (UACC-62 melanoma) of 2.3 µM. The TGI (UACC-62 melanoma) was 15.5 µM, the GI50 (BT-549 breast) was 2.21 µM and the TGI (BT-549 breast) was 6.88 µM. For the same compound, the GI50 (SF-268 CNS) was 3.99 µM, the TGI (SF-268 CNS) was greater than 100 µM and the GI50 (SR leukemia) was 2.52 µM. For the same compound, the TGI (SR leukemia) was 9.84 µM, the GI50 (MALME-3M melanoma) was 1.79 µM and the TGI (MALME-3M melanoma) was 5.49 µM. It also gave a GI50 (HOP-92 NSCLC) of 2.24 µM and a TGI (HOP-92 NSCLC) of 6.12 µM.

Work on `COc1ccc(-c2nn(-c3cccc(Cl)c3)cc2-c2cc(-c3ccccc3)[nH]c(=O)c2C#N)cc1` yielded a GI50 (RXF 393 renal) of 0.897 µM, a TGI (RXF 393 renal) of 2.18 µM and a GI50 (HS 578T breast) of 1.41 µM. It also gave a TGI (HS 578T breast) greater than 50 µM, a GI50 (EKVX NSCLC) of 1.37 µM and a TGI (EKVX NSCLC) greater than 50 µM. The GI50 (SF-539 CNS) was 1.01 µM, the TGI (SF-539 CNS) was 2.75 µM and the GI50 (UACC-62 melanoma) was 2.26 µM. For the same compound, the TGI (UACC-62 melanoma) was 11.1 µM, the GI50 (BT-549 breast) was 1.46 µM and the TGI (BT-549 breast) was 17.8 µM. For the same compound, the GI50 (SF-268 CNS) was 2.59 µM, the TGI (SF-268 CNS) was greater than 50 µM and the GI50 (SR leukemia) was 7.74 µM. The TGI (SR leukemia) was 15.8 µM, the GI50 (MALME-3M melanoma) was 13.7 µM and the TGI (MALME-3M melanoma) was greater than 50 µM. The GI50 (HOP-92 NSCLC) was 0.654 µM and the TGI (HOP-92 NSCLC) was 2.14 µM.
